# Columns and labels:
# [1] = tested on: IL-6; experiment: ELISA of IL-6 in LPS-stimulated RAW 264.7 macrophages; format: cell-based, mouse
# Method: RAW 264.7 cells were plated at a concentration of 10,000 cells/mL in 96 plates and allowed to grow overnight. For preventative anti-inflammatory treatment, Platin-A (10 μM), aspirin (10 μM), cisplatin (10 μM) and an equimolar ratio of cisplatin and aspirin (10 μM each) was incubated with the RAW cells for 6 h. Lipopolysaccharide (LPS) (100 ng/mL) was added and the cells were further incubated for 12 h. For therapeutic anti-inflammatory treatment, LPS (100 ng/mL) was added to the RAW cells and incubated for 6 h. Platin-A (10 μM), aspirin (10 μM), cisplatin (10 μM) and an equimolar ratio of cisplatin and aspirin (10 μM each) was then added to the cells and incubated for 12 h. ELISA was performed on the supernatants against the cytokines interleukin (IL)-6, IL-10, and TNF-α. Briefly, antibody coated plates were blocked with 10% FBS in PBS for 1 h at room temperature followed by 3 washes. RAW cell supernatants were incubated on the plates for 2 h at room temperature. This was immediately followed by washings and sequential incubations with the cytokine-biotin conjugate and streptavidin working solution. Finally, the substrate reagent containing 3,3′,5,5′-tetramethylbenzidine (100 μL) was added to each well, incubated for 15 min, the reaction was stopped by adding 50 μL H2SO4 (0.1 M). The absorbance was recorded at 450 nm using a BioTek Synergy HT well plate reader.
# [2] = Aspirin release from Platin-A by RP-HPLC after sodium ascorbate reduction; format: physicochemical; settings: acetonitrile-water, HPLC 280 nm
# Method: The remarkable anticancer activity of cisplatin is due to its inherent proficiency to bind with the N7 position of guanine bases leading to DNA damage. To mimic the intracellular reduction of Platin-A to cisplatin and activity of generated cisplatin with DNA, Platin-A was reduced with sodium ascorbate in the presence of 2′-deoxyguanosine 5′-monophosphate sodium salt hydrate (5′-GMP) as a truncated version of DNA, and the products were analyzed by matrix-assisted laser desorption/ionization (MALDI)-time of flight (TOF)-mass spectrometry (MS). […] Binding studies with 5′-GMP provided strong evidence that cisplatin released upon reduction of Platin-A will interact with nuclear DNA efficiently. The release of the other drug, aspirin from Platin-A was analyzed by HPLC (FIG. 8). […] As time progress, formation of increasing amounts of salicylic acid, the main metabolite of aspirin was detected (FIG. 8). This observation supported the release of aspirin moiety from Platin-A in its pristine form or its final metabolite form for COX inhibitory and anti-inflammatory activities, respectively.
# The ability of Platin-A to release aspirin under reducing atmosphere was studied RP-HPLC. Reduction of Platin-A (2.97 mg, 2 mM) was carried out using sodium ascorbate (5.28 mg, 10 mM) in acetonitrile-water (1:2, 3 mL) and reduction product was examined by HPLC. […]
# [3] = Cyclic voltammetry; format: physicochemical
# Method: FIG. 6: Cyclic voltammograms of ‘Platin-A’ in 1:4 dimethyformamide (DMF)-phosphate buffer-0.1 M KCl at two different pH values.
# Electrochemical measurements were made at 25° C. on an analytical system model CHI 920c potentiostat from CH Instruments, Inc. (Austin, Tex.). A conventional three-electrode set-up comprising a glassy carbon working electrode, platinum wire auxiliary electrode and an Ag/AgCl (3M KCl) reference electrode was used for electrochemical measurements. The electrochemical data were uncorrected for junction potentials. KCl was used as a supporting electrolyte. Platin-A (2 mM) solutions were prepared in 20% DMF-phosphate buffered saline (PBS) of pH 6.4 and 7.4 with […] and voltammograms were recorded at different scan rates (FIG. 6).
# [4] = tested on: PC3 cells; experiment: Apoptosis detection by annexin V/PI assay; format: cell-based, Human; settings: 25 μM, 6 h
# Excerpt: High expression of COX-2 is found in various cancers, however, for PCa cell lines as well as tissue, contradictory results exist. We therefore tested anti-proliferative properties of Platin-A on androgen-responsive LNCaP and androgenunresponsive PC3 and DU145 PCa cells that differ in their malignant potentials. […] However, in LNCaP cells, Platin-A activity was better than an equimolar mixture of cisplatin and aspirin. In general, Pt(IV) compounds are less cytotoxic compared to their active Pt(II) form. […] To evaluate whether Platin-A-dependent inhibition of cancer cell proliferation is associated with apoptosis, Alexa Fluor® 488 annexin V/propidium iodide (PI) staining assay was carried out in PC3 cells and the data were analyzed by fluorescence assisted cell sorting. […]
# PC3 cells were seeded at a density of 1×10^6 cells/mL on each well of a six well plate and allowed to grow overnight. […] Cell density was determined and cells were resuspended in 1× annexinVbinding buffer to 1×10^6 cells/mL preparing a sufficient volume to have 100 μL per assay. […] After the incubation period, 400 μL of 1× annexin-binding buffer was added to each sample, samples were gently mixed keeping the samples on ice, and the samples were analyzed on the flow cytometer immediately.
smiles,measurement,setting,value
CC(=O)Oc1ccccc1C(=O)[O][Pt]([NH2])([NH2])([OH])([Cl])[Cl] [Platin-A],LPS-induced IL-6 production,"[1]; preventive: pretreatment 10 μM 6 h, then LPS 12 h",significantly inhibited
same,levels of IL-6,[1]; therapeutic: LPS activated macrophages then 10 μM for 12 h,significantly reduced
same,release of aspirin upon reduction,[2],initially produces aspirin upon reduction
same,positive shift of reduction potential,[3]; pH 6.4 compared with pH 7.4,42 mV
same,reduction potential,"[3]; pH 7.4, vs. normal hydrogen electrode (NHE)",−536 mV
same,apoptosis induction (annexin V/PI),[4],High level of apoptosis was induced

# Reference: patent US20170190726A9, “PRODRUG FOR RELEASE OF CISPLATIN AND CYCLOOXYGENASE INHIBITOR” (priority 2013, published 2017)
